Experimental data reported in patent US9598441B2, “Therapeutic compounds and methods” (Wayne State University, priority 2011, dated 2017).

Test system: MDA-MB-468 wild-type, vector and CARP-1 (Δ896-978) expressing cells
Experiment: MTT assay in stable HBC sublines expressing vector or CARP-1 (Δ896-978)
Assay type: cell-based, human
Conditions: for growth of wild-type, vector and CARP-1 (Δ896-978) expressing cells (MTT): 0.1 and 1.0 μg/ml ADR, or 5 and 10 μM CFM-4; for sensitivity of CARP-1 (Δ896-978) expressing cells to inhibition: versus wild-type or vector cells
Text: Routine maintenance and culture of MDA-MB-231, MDA-MB-468, SKBR-3 (all lack ER and have mutant p53), MCF-7, T47D (both have ER and wild-type p53) HBC cells (Runnebaum, I. B., Nagarajan, M., Bowman, M., Soto, D., and Sukumar, S. (1991). Proc. Natl. Acad. Sci. USA 88, 10657-10661), human prostate cancer PC3 and LnCAP cells, HCT-116 human colon cancer, human pancreatic cancer PANC-1 and BxPC-3, Burkett lymphoma Raji, diffuse large B-cell lymphoma WSU-DLCL2, follicular lymphoma WSU-FSCCL cells, cervical cancer HeLa, human mesothelial Met5a, human pleural malignant mesothelioma (MPM), murine MPM AB12 cells (Wang, Y., Rishi, A. K., Puliyappadamba, V. T., Sharma, S., Yang, H., Tarca, A., Dou, Q. P., Lonardo, F., Ruckdeschel, J. C., Pass, H. I., Wali, A. (2010) Can. Chemother. Pharmacol. 66, 455-466), and the green monkey kidney Cos-7 cells was carried out essentially as described (Rishi, A. K., Zhang, L., Boyanapalli, M., Wali, A., Mohammad, R. M., Yu, Y., Fontana, J. A., Hatfield, J. S., Dawson, M. I., Majumdar, A. P. N., and Reichert, U. (2003) J. Biol. Chem. 278, 33422-33435, Rishi, A. K., Zhang, L., Yu, Y., Jiang, Y., Nautiyal, J., Wali, A., Fontana, J. A., Levi, E., and Majumdar, A. P. N. (2006) J. Biol. Chem. 281(19), 13188-98, Zhang, L., Levi, E., Majumder, P., Yu, Y., Aboukameel, A., Du, J., Xu, H., Mohammad, R. M., Hatfield, J. S., Wali, A., Adsay, V., Majumdar, A. P. N., and Rishi, A. K. (2007) Mol. Cancer Ther. 6(5), 1661-1672, Levi, L., Zhang, L., Aboukameel, A., Rishi, S., Mohammad, R. M., Polin, L., Hatfield, J. S., and Rishi, A. K. Can. Chemother. Pharmacol. (in Press). The immortalized, non-tumorigenic human breast epithelial MCF-10A have been described before (Miller, F. R. (2000). J. Mammary Gland Biol. Neoplasia 5, 379-391). MCF-7 cells that are resistant to adriamycin (MCF-7/Adr/Vp) or tamoxifen (MCF-7-TAM) were obtained from Drs. Douglas Ross (University of Maryland Baltimore) and Kaladhar Reddy (Pathology Department, Wayne State University, Detroit, Mich.), respectively, and were maintained essentially following methods described before (Doyle, L. A., Yang, W., Abruzzo, L. V., Krogmann, T., Gao, Y., Rishi, A. K., and Ross, D. D. (1998). Proc. Natl. Acad. Sci. (USA), 95, 15665-15670, Nabha, S., Glaros, S., Hong, M., Lykkesfeidt, A. E., Schiff, R., Osborne, C. K., Reddy, K. B. (2005). Oncogene, 24, 3166-3176). The stable sublines were generated by transfecting the MDA-MB-468 cells with the vector or the recombinant pcDNA3/CARP-1 (Δ896-978)-myc-His plasmid followed by selection in the presence of 800 μg/ml neomycin using described methods (Rishi, A. K., Zhang, L., Boyanapalli, M., Wali, A., Mohammad, R M, Yu, Y., Fontana, J. A., Hatfield, J. S., Dawson, M. I., Majumdar, A. P. N., and Reichert, U. (2003) J. Biol. Chem. 278, 33422-33435).
Logarithmically growing cells were either untreated or treated with different agents for various time periods. The cells were lysed to prepare protein extracts. IP was carried out by incubating approximately 1 mg of the protein lysate with appropriate antibodies, and the immunoprecipitates or cell lysates were then electrophoresed on 9-12% SDS-polyacrylamide gels, and transferred to nitrocellulose membranes. The membranes were subsequently probed with various antibodies to determine expression/presence of the corresponding proteins. The cell growth inhibition was assessed by using MTT assay. […]

Structure (SMILES)	growth of wild-type, vector and CARP-1 (Δ896-978) expressing cells (MTT)	sensitivity of CARP-1 (Δ896-978) expressing cells to inhibition	loss of viability of CARP-1 (Δ896-978) cells versus wild-type or vector-transfected cells (10 μM dose)
COc1cccc2c1C(=O)c1c(O)c3c(c(O)c1C2=O)C[C@@](O)(C(=O)CO)C[C@@H]3O[C@H]1C[C@H](N)[C@H](O)[C@H](C)O1 [ADR, adriamycin, reference compound]	suppressed growth	generally more sensitive	–
O=C1N(Cc2ccccc2Cl)c2ccccc2C12NN=C(c1ccccc1)S2 (centres unmarked) [CFM-4, 1-(2-chlorobenzyl)-5′-phenyl-3′H-spiro[indoline-3,2′-[1,3,4]thiadiazol]-2-one]	suppressed growth	generally more sensitive	greater loss of viability
